Measurements: patent EP3928777A1, “4,5-DIHYDRO-OXAZOL-2-YLAMINE DERIVATIVES FOR USE IN THE PREVENTION OR TREATMENT OF ALCOHOL USE DISORDER” (Instytut Biologii Doswiadczalnej im. Marcelego Nenckiego …, priority 2020, dated 2021)

Tests used:
[1] = tested on: C57BL/6 mouse; assay: Amount of alcohol (20%) consumed by alcohol-trained mice in IntelliCages after intraperitoneal injection; type: in vivo; conditions: versus vehicle control group
Experimental: The study involved 30 C57BL/6 mouse subjects that had undergone a two-month, earlier adaptive training to drink alcohol (20%) in IntelliCages (Fig. 1), under typical living conditions (temperature: 21-23°C, humidity 50-60%, 12/12 light-dark cycle). During the adaptive training, the mice had constant access to food and water except for: • 1. 25 days, during which, 2 hours after the beginning of the dark phase, all water bottles were replaced for 3 hours with bottles containing 20% alcohol (no access to clean water at all). • 2. 15 days, during which, 2 hours after the beginning of the dark phase, half of the water bottles were replaced for 3 hours with bottles containing 20% alcohol (possibility to choose water or alcohol). […]
During the adaptive training, the amount of alcohol consumed was recorded for each animal separately. […] The degree of preference for drinking alcohol was determined according to the following criteria: • high-drinkers: on average from 100 to 200 licks of alcohol, with a choice between water and alcohol (3 hour session); • medium-drinkers: on average from 50 to 100 licks of alcohol, with a choice between water and alcohol; (3 hour session); • low-drinkers: on average from 0 to 50 licks of alcohol, with a choice between water and alcohol; (3 hour session); […]

[2] = tested on: cocaine-dependent or binge eating animals; conditions: cited from earlier work
[3] = Solubility in the injection vehicle; type: physicochemical; conditions: solution of 5% ethanol and 10% collyphor, for an exemplary dose of 10 mg/kg body weight, intraperitoneal administration
Experimental: (§1) The compound of Formula II is additionally easy to prepare and formulate (well soluble in a solution of 5% ethanol and 10% collyphor for an exemplary dose of 10 mg/kg body weight in an intraperitoneal administration), it appears to be non-toxic in animal models.

[4] = tested on: animal models; assay: Toxicity in animal models; type: in vivo
Experimental: as §1

[5] = tested on: mice; assay: Motivation to drink alcohol: progressive nose-poke test in IntelliCages; type: in vivo; conditions: 10 mg/kg bw intraperitoneal, 20% alcohol, attempts measured over 20 hours, 3 tests, Fig. 5
Experimental: The effect of RO5256390 administration on motivation to drink alcohol was also assessed experimentally. In this experiment a new group of animals was used, these were 13 animals that underwent a three-month adaptive training to drink alcohol (20%) in IntelliCages. The motivation to drink alcohol was then assessed for each animal by conducting 3 tests. For the purposes of the test, the IntelliCage was designed in such a way that access to alcohol for a given animal was only possible, with a certain number of so-called "nose-pokes", meaning cutting the laser beam with the snout when trying to reach the alcohol bottle. In order to drink alcohol, the animal must first cut the beam twice, then 4, 8, 12, 16 times etc. After the required number of nose-pokes are made, the alcohol-blocking door opens. The more attempts to get into the alcohol bottle and the greater the number of beam intersection events achieved, the greater the motivation to drink alcohol. Each test started when half of the water bottles was replaced with 20% alcohol bottles. During the next 20 hours the number of drinking attempts was measured for each animal. After 3 series of motivational tests, which were carried out at weekly intervals, the animals were divided into two experimental groups. […]

CC[C@@H](C[C@H]1COC(N)=N1)c1ccccc1 [RO5256390]
amount of consumed alcohol during 20 hours after injection ([1]; 10 mg/kg bw intraperitoneal, 20% alcohol, Fig. 3): statistically significant lower amount of alcohol
amount of consumed alcohol in the 20 hours post injection after a 10 day abstinence period ([1]; access to alcohol blocked for 10 days, treated as previously (10 mg/kg bw i.p.), Fig. 4): statistically significantly lower amount of alcohol
suppressing compulsive behavior [2]: effective in suppressing compulsive behavior
solubility [3]: well soluble
toxicity [4]: non-toxic
motivation to drink alcohol (number of alcohol drinking attempts) [5]: reduces the motivation to drink alcohol
